Source: PubChem BioAssay AID1259407 (Chemical Carcinogenesis Research Information System (CCRIS), 2018)
The source made the active and inactive calls. The rule behind the calls is not given here.

Tested on: CCRIS mutagenicity, Ames/micronucleus/aberration tests
Experiment: CCRIS mutagenicity studies
[1] = Test System: AMES SALMONELLA TYPHIMURIUM, Strain/Indicator: TA98, Metabolic Activation: NONE, Method: STANDARD PLATE
[2] = Test System: AMES SALMONELLA TYPHIMURIUM, Strain/Indicator: TA100, Metabolic Activation: NONE, Method: STANDARD PLATE
[3] = Test System: AMES SALMONELLA TYPHIMURIUM, Strain/Indicator: TA100, Metabolic Activation: NONE, Method: PREINCUBATION
[4] = Test System: CHINESE HAMSTER V-79, Strain/Indicator: V-79/6-THIOGUANINE, Metabolic Activation: NONE, Method: STANDARD PLATE
[5] = Test System: AMES SALMONELLA TYPHIMURIUM, Strain/Indicator: TA98, Metabolic Activation: NONE, Method: PREINCUBATION
[6] = End Point: IN VITRO CHROMOSOMAL ABERRATIONS, Test System: CHL CELLS, Metabolic Activation: NONE
[7] = End Point: IN VITRO CHROMOSOMAL ABERRATIONS, Test System: CHL CELLS, Metabolic Activation: RAT, LIVER, S-9, SODIUM PHENOBARBITAL AND 5,6-BENZOFLAVONE

O=C1CCC(=O)N1Br
mutagenic call (Test System: AMES SALMONELLA TYPHIMURIUM, Strain/Indicator: TA98, Metabolic Activation: HAMSTER, LIVER, S-9, AROCLOR 1254 (10%), Method: STANDARD PLATE): inactive; negative | mutagenic call [1]: inactive; negative | mutagenic call (Test System: AMES SALMONELLA TYPHIMURIUM, Strain/Indicator: TA98, Metabolic Activation: RAT, LIVER, S-9, AROCLOR 1254 (10%), Method: STANDARD PLATE): inactive; negative | mutagenic call (Test System: AMES SALMONELLA TYPHIMURIUM, Strain/Indicator: TA100, Metabolic Activation: HAMSTER, LIVER, S-9, AROCLOR 1254 (10%), Method: STANDARD PLATE): active; positive | mutagenic call [2]: inactive; negative | mutagenic call (Test System: AMES SALMONELLA TYPHIMURIUM, Strain/Indicator: TA100, Metabolic Activation: RAT, LIVER, S-9, AROCLOR 1254 (10%), Method: STANDARD PLATE): active; positive | mutagenic call (Test System: MOUSE LYMPHOMA, Strain/Indicator: L5178Y (TK+/TK-), Metabolic Activation: NONE, Method: SUSPENSION/PLATE): active; positive. reevaluation of results: equivocal | mutagenic call (Test System: MOUSE LYMPHOMA, Strain/Indicator: L5178Y (TK+/TK-), Metabolic Activation: RAT, LIVER, S-9, AROCLOR 1254, Method: SUSPENSION/PLATE): inactive; negative. reevaluation of results: negative

Nc1nc2c([nH]c(=O)n2[C@@H]2O[C@H](CO)[C@@H](O)[C@H]2O)c(=O)[nH]1
mutagenic call [3]: inactive; negative

Cc1ccc2c(c1)-c1cc3ccccc3c3cc4ccccc4c-2c13
mutagenic call (Test System: AMES SALMONELLA TYPHIMURIUM, Strain/Indicator: TA100, Metabolic Activation: RAT, LIVER, S-9, 3-METHYLCHOLANTHRENE, Method: STANDARD PLATE): active; positive

O=NN(CCCl)C(=O)NCCCl
mutagenic call (End Point: In vitro micronucleus, Test System: Human lymphoblastoid TK6 cells, Metabolic Activation: None): active; positive (not dose related) | mutagenic call (Test System: AMES SALMONELLA TYPHIMURIUM, Strain/Indicator: TA1535, Metabolic Activation: NONE, Method: STANDARD PLATE): active; positive | mutagenic call (Test System: CHINESE HAMSTER OVARY, Strain/Indicator: D422 (APRT), Metabolic Activation: NONE, Method: REPLATING): active; positive | mutagenic call [4]: active; positive

CC(=O)N(O)c1ccc(/C=C/c2ccccc2)cc1
mutagenic call [5]: inactive; negative | mutagenic call (Test System: AMES SALMONELLA TYPHIMURIUM, Strain/Indicator: TA98, Metabolic Activation: RAT, LIVER, CYTOSOL, Method: PREINCUBATION): active; positive | mutagenic call (Test System: AMES SALMONELLA TYPHIMURIUM, Strain/Indicator: TA98, Metabolic Activation: RAT, LIVER, MICROSOMES, Method: PREINCUBATION): active; positive | mutagenic call [4]: active; positive

CC(C)c1ccc(/C=C/c2ccc([N+](=O)[O-])cc2)cc1
mutagenic call [1]: inactive; negative | mutagenic call (Test System: AMES SALMONELLA TYPHIMURIUM, Strain/Indicator: TA98, Metabolic Activation: RAT, LIVER, S-9, AROCLOR, Method: STANDARD PLATE): active; positive | mutagenic call [2]: inactive; negative | mutagenic call (Test System: AMES SALMONELLA TYPHIMURIUM, Strain/Indicator: TA100, Metabolic Activation: RAT, LIVER, S-9, AROCLOR, Method: STANDARD PLATE): active; positive

NCc1ccc(CN)cc1
mutagenic call [6]: inactive; negative | mutagenic call [7]: inactive; negative | mutagenic call [5]: inactive; negative | mutagenic call (Test System: AMES SALMONELLA TYPHIMURIUM, Strain/Indicator: TA98, Metabolic Activation: RAT, LIVER, S-9, PHENOBARBITAL AND BETA-NAPHTHOFLAVONE, Method: PREINCUBATION): inactive; negative | mutagenic call [3]: inactive; negative | mutagenic call (Test System: AMES SALMONELLA TYPHIMURIUM, Strain/Indicator: TA100, Metabolic Activation: RAT, LIVER, S-9, PHENOBARBITAL AND BETA-NAPHTHOFLAVONE, Method: PREINCUBATION): inactive; negative | mutagenic call (Test System: AMES SALMONELLA TYPHIMURIUM, Strain/Indicator: TA102, Metabolic Activation: NONE, Method: PREINCUBATION): inactive; negative | mutagenic call (Test System: AMES SALMONELLA TYPHIMURIUM, Strain/Indicator: TA102, Metabolic Activation: RAT, LIVER, S-9, PHENOBARBITAL AND BETA-NAPHTHOFLAVONE, Method: PREINCUBATION): inactive; negative | mutagenic call (Test System: AMES SALMONELLA TYPHIMURIUM, Strain/Indicator: TA1535, Metabolic Activation: NONE, Method: PREINCUBATION): inactive; negative | mutagenic call (Test System: AMES SALMONELLA TYPHIMURIUM, Strain/Indicator: TA1535, Metabolic Activation: RAT, LIVER, S-9, PHENOBARBITAL AND BETA-NAPHTHOFLAVONE, Method: PREINCUBATION): inactive; negative | mutagenic call (Test System: AMES SALMONELLA TYPHIMURIUM, Strain/Indicator: TA1537, Metabolic Activation: NONE, Method: PREINCUBATION): inactive; negative | mutagenic call (Test System: AMES SALMONELLA TYPHIMURIUM, Strain/Indicator: TA1537, Metabolic Activation: RAT, LIVER, S-9, PHENOBARBITAL AND BETA-NAPHTHOFLAVONE, Method: PREINCUBATION): inactive; negative | mutagenic call (Test System: E. COLI, Strain/Indicator: WP2UVRA/PKM101, Metabolic Activation: NONE, Method: PREINCUBATION): inactive; negative | mutagenic call (Test System: E. COLI, Strain/Indicator: WP2UVRA/PKM101, Metabolic Activation: RAT, LIVER, S-9, PHENOBARBITAL AND BETA-NAPHTHOFLAVONE, Method: PREINCUBATION): inactive; negative | mutagenic call (Test System: E. COLI, Strain/Indicator: WP2UVRA/PKM101, Metabolic Activation: RAT, LIVER, S-9, SODIUM PHENOBARBITAL AND 5,6-BENZOFLAVONE, Method: PREINCUBATION): inactive; negative | mutagenic call (Test System: E. COLI, Strain/Indicator: WP2UVRA, Metabolic Activation: NONE, Method: PREINCUBATION): inactive; negative | mutagenic call (Test System: E. COLI, Strain/Indicator: WP2UVRA, Metabolic Activation: RAT, LIVER, S-9, PHENOBARBITAL AND BETA-NAPHTHOFLAVONE, Method: PREINCUBATION): inactive; negative

ClCc1ccc2ccc3cccc4ccc1c2c34
mutagenic call (Test System: AMES SALMONELLA TYPHIMURIUM, Strain/Indicator: TA98, Metabolic Activation: NONE): active; positive | mutagenic call [5]: active; positive | mutagenic call [1]: active; positive | mutagenic call [2]: active; positive

COC(=O)C(Cl)Cl
mutagenic call [6]: active; positive (structural changes); precipitation of test chemical observed above 1.6 | mutagenic call [7]: active; positive (structural changes); precipitation of test chemical observed above 2.0 | mutagenic call (Test System: AMES SALMONELLA TYPHIMURIUM, Strain/Indicator: TA102, Metabolic Activation: RAT, LIVER, S-9, PHENOBARBITAL AND 5,6-BENZOFLAVONE, Method: STANDARD PLATE): active; positive | mutagenic call (Test System: AMES SALMONELLA TYPHIMURIUM, Strain/Indicator: TA2638, Metabolic Activation: RAT, LIVER, S-9, PHENOBARBITAL AND 5,6-BENZOFLAVONE, Method: STANDARD PLATE): active; positive | mutagenic call (Test System: E. COLI, Strain/Indicator: WP2 (PKM101), Metabolic Activation: RAT, LIVER, S-9, PHENOBARBITAL AND 5,6-BENZOFLAVONE, Method: STANDARD PLATE): active; positive | mutagenic call (Test System: E. COLI, Strain/Indicator: WP2 UVRA (PKM101), Metabolic Activation: RAT, LIVER, S-9, PHENOBARBITAL AND 5,6-BENZOFLAVONE, Method: STANDARD PLATE): active; positive

Cc1ccc2c(ccc3ccccc32)c1
mutagenic call (Test System: AMES SALMONELLA TYPHIMURIUM, Strain/Indicator: TA97, Metabolic Activation: NONE, Method: STANDARD PLATE): inactive; negative | mutagenic call (Test System: AMES SALMONELLA TYPHIMURIUM, Strain/Indicator: TA97, Metabolic Activation: RAT, LIVER, S-9, PCB, Method: STANDARD PLATE): active; positive | mutagenic call [1]: inactive; negative | mutagenic call (Test System: AMES SALMONELLA TYPHIMURIUM, Strain/Indicator: TA98, Metabolic Activation: RAT, LIVER, S-9, PCB, Method: STANDARD PLATE): active; positive | mutagenic call [2]: inactive; negative | mutagenic call (Test System: AMES SALMONELLA TYPHIMURIUM, Strain/Indicator: TA100, Metabolic Activation: RAT, LIVER, S-9, PCB, Method: STANDARD PLATE): active; positive
